Test results: PubChem BioAssay AID1845212 (Molecular Pharmacology Branch, DTP, NCI, 2023)
Several values for one entry are separate records, joined by “and”; a condition that tells them apart may be missing. Equal values may be shown once.

Tested on: NCI-H719 tumor spheroids, viability
Test: Anticancer human tumor NCI-H719 cell line growth inhibition;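 note: spheroids exposed to compounds for seven days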;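 for viability, T/C: percent viability relative to DMSO vehicle control as 100%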
Details: spheroids with HUVEC and MSC; for viability, T/C: stronger effect = lower value
How it was run: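 Complex spheroids of malignant cells with endothelial cells and mesenchymal stem cells; agents alone or combined, from near clinical Cmax (or 10 microM if unknown) down in half-log steps, 0.25% DMSO final.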

**Q.** `CC1COCCN1c1cc(-c2ccnn2C)c2ccnc(-c3ccn[nH]3)c2n1` (configuration not stated) + COc1cc2c(cc1O)CCNC21CSC2c3c(OC(C)=O)c(C)c4c(c3C(COC1=O)N1C(O)C3Cc5cc(C)c(OC)c(O)c5C(C21)N3C)OCO4 was tested. Which IC50 (curve of first compound, second compound 30 pM) did it give?
**A.** The IC50 was < 31.6 nM.

**Q.** What about the IC50 (curve of first compound, second compound 94.9 pM) of the same molecule?
**A.** The IC50 was < 31.6 nM.

**Q.** What about the IC50 (curve of first compound, second compound 0.0003 µM) of the same molecule?
**A.** Its IC50 is < 31.6 nM.

**Q.** What about the IC50 (curve of first compound, second compound 0.000949 µM) of the same molecule?
**A.** Its IC50 is < 31.6 nM.

**Q.** And the IC50 (curve of first compound, second compound 0.003 µM)?
**A.** Its IC50 is < 31.6 nM.

**Q.** What about the viability, T/C (second compound 30 pM, first compound 0.0316 µM) of the same molecule?
**A.** The viability, T/C was 29%.

**Q.** What about the viability, T/C (second compound 30 pM, first compound 0.1 µM) of the same molecule?
**A.** The viability, T/C was 19.2%.

**Q.** What about the viability, T/C (second compound 30 pM, first compound 0.316 µM) of the same molecule?
**A.** Its viability, T/C is 16.2%.

**Q.** What about the viability, T/C (second compound 30 pM, first compound 1 µM) of the same molecule?
**A.** The viability, T/C was 9.83%.

**Q.** And the viability, T/C (second compound 30 pM, first compound 3.16 µM)?
**A.** Its viability, T/C is 8.37%.

**Q.** And the viability, T/C (second compound 30 pM, first compound 10 µM)?
**A.** The viability, T/C was 11%.

**Q.** And the viability, T/C (second compound 94.9 pM, first compound 0.0316 µM)?
**A.** The viability, T/C was 13.6%.

**Q.** What about the viability, T/C (second compound 94.9 pM, first compound 0.1 µM) of the same molecule?
**A.** Its viability, T/C is 7.91%.

**Q.** What about the viability, T/C (second compound 94.9 pM, first compound 0.316 µM) of the same molecule?
**A.** The viability, T/C was 7.75%.

**Q.** And the viability, T/C (second compound 94.9 pM, first compound 1 µM)?
**A.** Its viability, T/C is 7.08%.

**Q.** What about the viability, T/C (second compound 94.9 pM, first compound 3.16 µM) of the same molecule?
**A.** Its viability, T/C is 6.07%.

**Q.** What about the viability, T/C (second compound 94.9 pM, first compound 10 µM) of the same molecule?
**A.** Its viability, T/C is 10.4%.

**Q.** What about the viability, T/C (second compound 0.0003 µM, first compound 0.0316 µM) of the same molecule?
**A.** Its viability, T/C is 7.42%.

**Q.** And the viability, T/C (second compound 0.0003 µM, first compound 0.1 µM)?
**A.** Its viability, T/C is 7.97%.

**Q.** And the viability, T/C (second compound 0.0003 µM, first compound 0.316 µM)?
**A.** Its viability, T/C is 6.18%.

**Q.** And the viability, T/C (second compound 0.0003 µM, first compound 1 µM)?
**A.** The viability, T/C was 5.64%.

**Q.** What about the viability, T/C (second compound 0.0003 µM, first compound 3.16 µM) of the same molecule?
**A.** The viability, T/C was 6.36%.

**Q.** And the viability, T/C (second compound 0.0003 µM, first compound 10 µM)?
**A.** The viability, T/C was 9.31%.

**Q.** And the viability, T/C (second compound 0.000949 µM, first compound 0.0316 µM)?
**A.** The viability, T/C was 7.59%.

**Q.** And the viability, T/C (second compound 0.000949 µM, first compound 0.1 µM)?
**A.** The viability, T/C was 7.35%.

**Q.** What about the viability, T/C (second compound 0.000949 µM, first compound 0.316 µM) of the same molecule?
**A.** The viability, T/C was 6.11%.

**Q.** And the viability, T/C (second compound 0.000949 µM, first compound 1 µM)?
**A.** Its viability, T/C is 3.98%.

**Q.** What about the viability, T/C (second compound 0.000949 µM, first compound 3.16 µM) of the same molecule?
**A.** The viability, T/C was 3.9%.

**Q.** And the viability, T/C (second compound 0.000949 µM, first compound 10 µM)?
**A.** The viability, T/C was 3.4%.

**Q.** What about the viability, T/C (second compound 0.003 µM, first compound 0.0316 µM) of the same molecule?
**A.** The viability, T/C was 0.28%.

**Q.** What about the viability, T/C (second compound 0.003 µM, first compound 0.1 µM) of the same molecule?
**A.** Its viability, T/C is 0.46%.

**Q.** What about the viability, T/C (second compound 0.003 µM, first compound 0.316 µM) of the same molecule?
**A.** Its viability, T/C is 0.86%.

**Q.** And the viability, T/C (second compound 0.003 µM, first compound 1 µM)?
**A.** Its viability, T/C is 1.82%.

**Q.** And the viability, T/C (second compound 0.003 µM, first compound 3.16 µM)?
**A.** The viability, T/C was 0.25%.

**Q.** And the viability, T/C (second compound 0.003 µM, first compound 10 µM)?
**A.** Its viability, T/C is 0.52%.

**Q.** `CC1COCCN1c1cc(-c2ccnn2C)c2ccnc(-c3ccn[nH]3)c2n1` (configuration not stated) was tested. Which viability, T/C (compound 0.0316 µM) did it give?
**A.** The viability, T/C was 59.9% and 73.9% and 62.1%.

**Q.** And the viability, T/C (compound 0.1 µM)?
**A.** Its viability, T/C is 60.1% and 43.6% and 50.1%.

**Q.** And the viability, T/C (compound 0.316 µM)?
**A.** The viability, T/C was 23.8% and 26.8% and 29.1%.

**Q.** What about the viability, T/C (compound 1 µM) of the same molecule?
**A.** Its viability, T/C is 11.2% and 14.3% and 10.5%.

**Q.** What about the viability, T/C (compound 3.16 µM) of the same molecule?
**A.** Its viability, T/C is 11.6% and 8.2% and 8.17%.

**Q.** And the viability, T/C (compound 10 µM)?
**A.** Its viability, T/C is 13.3% and 9.71% and 10.8%.

**Q.** And the IC50 (curve of compound)?
**A.** Its IC50 is 137 nM and 80.4 nM and 106 nM.
